In patent US11344601B2, “Tumor microenvironment-related target TAK1 and application thereof in inhibition of tumor” (Shanghai Institutes for Biological Sciences, Chinese …, priority 2017, dated 2022):
“And” between values parts separate entries of the source, which are not always exact repeats. Identical values can stand only once.

What was measured:
[1] = target: T1, TAK1 (Homo sapiens, UniProt O43318); assay: IP, in vitro kinase assay and Western blot of TAK1 activation in damaged PSC27 stromal cells; type: cell-based; settings: PSC27 cells treated with IL-1α (20 ng/ml)
T1 construct: PSC27 cells were treated with bleomycin and cell lysates were subject to anti-p-TAK1-mediated IP precipitation; endogenous in cells; host or cells: PSC27 human prostate stromal cells
T1 sequence (O43318 1-606): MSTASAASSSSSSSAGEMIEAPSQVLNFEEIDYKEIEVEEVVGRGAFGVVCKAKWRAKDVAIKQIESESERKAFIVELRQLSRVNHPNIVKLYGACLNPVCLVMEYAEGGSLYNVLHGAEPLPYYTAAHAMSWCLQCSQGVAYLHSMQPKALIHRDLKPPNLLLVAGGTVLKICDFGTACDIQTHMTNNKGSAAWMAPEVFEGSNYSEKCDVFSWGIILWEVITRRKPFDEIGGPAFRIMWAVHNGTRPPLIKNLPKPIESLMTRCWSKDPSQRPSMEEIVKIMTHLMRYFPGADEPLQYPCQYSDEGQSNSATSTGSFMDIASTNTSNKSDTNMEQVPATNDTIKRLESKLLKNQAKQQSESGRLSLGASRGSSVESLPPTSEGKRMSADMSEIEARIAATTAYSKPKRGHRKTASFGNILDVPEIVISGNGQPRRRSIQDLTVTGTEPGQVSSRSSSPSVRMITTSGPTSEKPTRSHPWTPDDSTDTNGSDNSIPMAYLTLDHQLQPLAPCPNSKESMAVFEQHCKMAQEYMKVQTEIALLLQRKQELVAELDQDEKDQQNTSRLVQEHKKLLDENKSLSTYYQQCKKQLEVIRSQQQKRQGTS
Method: In the presence of the TAK1 inhibitor 5Z-7, PSC27 cells were treated with bleomycin and cell lysates were subject to anti-p-TAK1-mediated IP precipitation. IP products were analyzed by in vitro kinase assay, and MKK6 was used as TAK1 substrate. p38 phosphorylation was analyzed by Western blot with GAPDH as the loading control. In addition, IL-1α (20 ng/ml) was used to treat stromal cells and was further analyzed by similar IP and in vitro kinase assay.

[2] = system: PSC27 cells; assay: DNA damage response foci, colony formation, cell cycle arrest and SA-β-Gal in PSC27 cells; type: cell-based, human
Method: Experimental Treatment In Vitro • 100 nM docetaxel (DTX), 100 nM paclitaxel (PTX), 200 nM vincristine (VCR), 50 μg/ml bleomycin (BLEO), 1 μM mitoxantrone (MIT), or 10 Gy ^137CS ionizating radiation (γ-radiation at 743 rad/min, RAD) was added to the culture medium when PSC27 cells grown to 80% (PSC27-Pre) to produce cell damage. After drug treatment for 6 hours, the cells were simply washed by PBS for 3 times and kept in the culture medium for 7 to 10 days, followed by subsequent experiments. […] Immunofluorescence and Histochemical Analysis • Mouse monoclonal antibody anti-phospho-Histone H2A.X (Ser139) (clone JBW301, Millipore) or mouse monoclonal antibody anti-Phosphor-53BP1 (Cat #sc-135748, Santa Cruz), and secondary antibody Alexa Fluor® 488 (or 594)-conjugated F(ab′)2 were added sequentially to slides on which cells were fixed. Nuclei were counterstained with 2 μg/ml of 4′,6-diamidino-2-phenylindole (DAPI). The most representative image was selected from the 3 observation fields for data analysis and result presentation. FV1000 laser scanning confocal microscopy (Olympus) was used to obtain cellular confocal fluorescence images to determine the extent of DNA damage. • Antibody anti-TAK1 used for histological IHC staining in clinical prostate, non-small cell lung cancer patients and breast cancer patients, was purchased from Proteintech, idib.

[3] = system: NF-κB complex; assay: NF-κB activation in bleomycin-treated stromal cells (nuclear translocation, luciferase reporter); type: cell-based, human; settings: for NF-κB transcriptional activity (reporter vector): bleomycin plus inhibitor, luciferase reporter
Method: FIG. 22. The stromal cells pre-transduced with the NF-κB transcriptional luciferase reporter vector were treated with bleomycin and/or RAD001. The cells were collected on Day 7 and detected for the fluorescence signal intensity of the reporter vector.
FIG. 32. Detection of NF-kB transcriptional activity based on the reporter vector. Stromal cells were treated with bleomycin along with the PI3K small molecule inhibitor LY294002 (1 μM), Akt inhibitor MK-2206 (100 nM), mTOR inhibitor RAD001 (50 nM), p38 inhibitor SB203580 (10 μM) and TAK1 inhibitor 5Z-7 (500 nM), respectively, and cell lysates were used for determining luciferase activity.
The […] vector pBABE-puro-IκBα-mut (Super repressor) containing two phosphorylated mutant sites of IKK at S32A and S34A on the IκBα protein encoding sequence were used for transfection of lentivirus-packing cell line phoenix. Lentiviruses were subsequently used to infect PSC27 stromal cell line, whereas 1 μg/ml puromycin was used to screen positive clones. As another method, 5 μm of the small molecule inhibitor Bay11-7082 (purchased from Selleck) was used for NF-κB activity control. Stromal cells were subsequently exposed to several different forms of cytotoxicity, with the resulting phenotype recorded in time, and the relevant gene expression analyzed. The resulted conditioned culture medium produced from cells processed in this way was collected for various detection of epithelial cells.
Even so, is TAK1 activated indirectly by upstream DDR signaling associated with activation of a core transcription factor, NF-κB complex involved in the broad-spectrum expression of the SASP? The NF-κB complex was previously reported to be mediated by mono-ubiquitination of IκB kinase subunit γ (IKKγ) in cytoplasm. After isolating nucleus from cytoplasmic proteins using a kit, the inventor finds that TAK1 phosphorylation is associated with nuclear translocation of p50 and p65, the two main subunits of NF-κB complex (FIG. 4).

[4] = target: T2, mTOR (Homo sapiens, UniProt P42345+P62942); assay: Western blot of Akt/mTOR pathway activation in bleomycin-treated stromal cells; type: cell-based
T2 construct: endogenous in cells; host or cells: PSC27 human prostate stromal cells
Method: (§1) The nitrocellulose filter membrane was blocked at room temperature for 1 h in the blocking solution (TBST containing 5% skim milk powder (0.1% Tween-20 in TBS)), incubated overnight at 4° C. in a primary antibody solution, rinsed at TBST room temperature for 3 times, each for 2 min. The corresponding secondary antibody conjugated with HRP prepared with the blocking solution was added, the filter membrane was incubated at room temperature for 0.5 h. The filter membrane was rinsed with PBST at room temperature for 3 times, each for 2 min.

[5] = system: prostate-derived stromal cell line PSC27 and epithelial cancer cell line PC3 xenograft tumors; assay: Preclinical chemotherapy trial, subcutaneous PC3/PSC27 tissue-recombinant tumors, terminal tumor volume; type: in vivo, ICR-SCID mice; settings: for further decrease in terminal tumor volume: inhibitor combined with mitoxantrone (MIT) vs mitoxantrone alone (group 8 vs group 6); for decrease in terminal tumor volume: mitoxantrone alone vs no drug (group 6 vs group 5)
Method: All experimental mouse experiments were carried out in strict accordance with the relevant regulations of the Institutional animal care and use committee (IACUC) of the shanghai Institute of Life Sciences of the Chinese Academy of Sciences. ICR-SCID mice at an age of about 6 weeks (about 25 g in body weight) were used in this patent-related animal experiment. Stromal cells PSC27 and epithelial cells were mixed at a ratio of 1:4, with each implant containing 1.25×10^6 cells for tissue recombination. The transplant tumor was implanted into mice subcutaneously, and the animals were euthanized at the end of Week 8 after transplantation. The tumor volume was calculated according to the following formula: V=(π/6)×((l+w)/2)^3 (V, volume; l, length; w, width). Similarly, lung and breast cancer xenograft tumors were formed by tissue recombination with A549 (non-small cell lung cancer cell line) and W138 (lung fibroblast line), MDA-MB-231 (triple negative breast cancer cell line) and HBF1203 (breast fibroblast line), respectively.
In the preclinical chemotherapy trial, mice subcutaneously transplanted with tumors were fed standard experimental diet. After 2 weeks, the chemotherapeutics mitoxantrone (dose of 0.2 mg/kg) and/or SASP inhibitors (500 μl, dose of 10 mg/kg, RAD001, SB203580 and 5Z-7 were purchased from Tocris; LYTAK, purchased from Lilly Co ((Indianapolis, Ind.), 5 mg/kg) were administrated intraperitoneally. The timepoint was the first day of Week 3, 5, 7, and the whole course of treatment was composed of three cycles of administration, each cycle lasted for 2 weeks. After the course of treatment, mouse […] was collected for tumor measurement and histological analysis. Each mouse received cumulatively 0.6 mg mitoxantrone/kg body weight and 30 mg SASP inhibitor/kg body (15 mg/kg body weight for LYTAK1). Mice xenografted with lung cancer and breast cancer tumor received bleomycin (totally 0.3 mg/kg) and doxorubicin (totally 0.2 mg/kg), respectively. The timepoints and frequency were same as the administration of mitoxantrone. The chemotherapeutic trial was performed until the end of Week 8, and the mice were dissected immediately after death. The transplant tumors were collected and used for analysis in a pathological system.
In order to simulate clinical conditions as much as possible, the present inventor inoculated the subcutaneous site of immunodeficient mice with an admixture of prostate-derived stromal cell line PSC27 and epithelial cancer cell line PC3. The mice subsequently underwent a regimen of 8-week preclinical chemotherapy, which included three single- or double-drug treatments based on a series of pre-experimental data (FIGS. 64 and 65). In the absence of stromal cells, PC3 cells were still able to form tumors under screening pressure caused by chemotherapeutics, though their volumes were smaller than that generated in the case of concurrent inoculation of stromal cells and cancer cells. Such difference also objectively confirmed the tumor-promoting effect of the microenvironment (FIG. 66).

[6] = system: p38MAPK, JNK, ATM; assay: Western blot of JNK, p38MAPK and ATM phosphorylation in damaged stromal cells; type: cell-based, human; settings: bleomycin and/or SB203580
Method: as §1

[7] = system: IL-8; assay: IL-8 protein expression of damaged stromal cells (Western blot, ELISA); type: cell-based, human; settings: ELISA of extracellular fluid, bleomycin plus inhibitor
Method: FIG. 15. The stromal cells were collected on Day 7 after bleomycin and/or 5Z-7 treatment. The lysates were analyzed by Western blot for their phosphorylation levels of ATM and TAK1, and activation of TAK1 downstream substrate JN K and p38. IL-8, a chemokine was used as a marker secreted factor of SASP, whose expression level was simultaneously analyzed. FIG. 33. The extracellular fluid released by each group of cells were tested by ELISA to determine the protein expression level of the secreted factor IL-8.

With “IL-1α: cytokine, known upstream regulatory factor for TAK1” the TAK1/MKK6 interaction [1] was “significantly enhanced” and the p38 kinase activity [1] was “significantly increased”.
For `CO[C@H]1C[C@@H]2CC[C@@H](C)[C@@](O)(O2)C(=O)C(=O)N2CCCC[C@H]2C(=O)O[C@H]([C@H](C)C[C@@H]2CC[C@@H](OCCO)[C@H](OC)C2)CC(=O)[C@H](C)/C=C(\C)[C@@H](O)[C@@H](OC)C(=O)[C@H](C)C[C@H](C)/C=C/C=C/C=C/1C` [RAD001], the “cell cycle arrest and SA-β-Gal activity” value ([2]; bleomycin-damaged stromal cells in the presence of RAD001) was “remained unaffected”, the “single-cell level of DDR foci” value ([2]; bleomycin-treated cells, presence or absence of inhibitor) was “remained unchanged” and the “phosphorylation of IKKβ, degradation of IRAK1 and IkBα, nuclear translocation of p65 and p50” value ([3]; after DNA damage, RAD001 added to the medium) was “largely abolished”. The “NF-κB transcriptional activity (reporter vector)” value (“NF-κB transcriptional activity” for short) [3] was “significantly attenuated”, the “activation of mTOR substrates S6K1 and 4E-BP1” value ([4]; bleomycin and/or RAD001, Day 7) was “inhibition of S6K1 and 4E-BP1 activation” and the “further decrease in terminal tumor volume” value ([5]; end of Week 8) was 44%.
In the case of `O=C1c2c(O)ccc(O)c2C(=O)c2c(NCCNCCO)ccc(NCCNCCO)c21` [mitoxantrone], the “decrease in terminal tumor volume” value ([5]; end of Week 8) was 37% and the “decrease in terminal tumor volume” value ([5]; end of Week 8, listed as MIT) was 37% and 36%.
With `C[S+]([O-])c1ccc(-c2nc(-c3ccncc3)c(-c3ccc(F)cc3)[nH]2)cc1` (centres unmarked) [SB203580] the “NF-κB transcriptional activity” value [3] was “significantly reduced”, the “phosphorylation level of p38” value [6] was “significantly reduce” and the “further decrease in terminal tumor volume” value ([5]; end of Week 8) was 46%. The “chemokine IL-8 protein levels induced by DNA damage” value [7] was “significantly reduced”.
For `NC1(c2ccc(-c3nc4ccn5c(=O)[nH]nc5c4cc3-c3ccccc3)cc2)CCC1` [MK-2206], the “NF-κB transcriptional activity” value [3] was “significantly reduced”, the “activity of mTOR” value ([4]; simultaneous treatment of bleomycin and MK-2206) was “significantly downregulated” and the “chemokine IL-8 protein levels induced by DNA damage” value [7] was “significantly reduced”.
